Measurements as given in patent US10815275B2, “Antimicrobial peptoids with improved selectivity and use thereof” (priority 2018, dated 2020).
Converted amounts (≈) assume the structure as drawn. Like-named read-outs stand apart in the source and are kept apart here. Non-standard residues stand in square brackets, D forms with d. Residues, ends and D or L forms follow the SMILES beside them. Nspe = C[C@H](NCC(=O)O)c1ccccc1; Nlys = NCCCCNCC(=O)O

Experiments:
in vitro = assay type: cell-based
Method: In order to determine whether the peptoids were cytotoxic against human cell lines, […] cell line (Korean Cell Line Bank) which is a human lung cell line was cultured in a DMEM (Dulbecco's modified Eagle's medium) culture solution containing 10% (v/v) fetal bovine serum (FBS) at 5% CO2 and a temperature of 37° C. 100 μL of DMEM medium was dispensed into each well of a 96-well microtiter plate so that the number of cells was 1.3×10^4, and then incubated overnight at a temperature of 37° C. in a 5% CO2 incubator. In this case, a DMEM medium was used as a negative control. Thereafter, the peptoid which is 2-fold serially diluted using sterile water was added to each well, and then incubated for 24 hours.
After incubation, 20 μL of an MTS solution [3-(4,5-dimethylthiazol-2-yl)-5-(3-carboxymethoxyphenyl)-2-(4-sulfophenyl)-2H-tetrazolium, inner salt; MTS] was added thereto and incubated at a temperature of 37° C. for 4 hours. Thereafter, % survival was calculated by measuring absorbance at a wavelength of 490 nm using an ELISA reader. The % survival was calculated as a percentage obtained by dividing the absorbance value for a well-treated with the peptoid by the absorbance value for a well containing control cells which had not been treated with the peptoid.

B. subtilis = assay type: cell-based; details: 18 h
Method: In order to measure antimicrobial activity of the peptoids, Gram-positive B. subtilis or Gram-negative E. coli strain DH5α was treated with Peptoid NOS. 1, 18 to 23, and the peptide Pexiganan, and minimum inhibitory concentrations were measured. Peptoid NOS. 1 and 2, and the peptide Pexiganan are already known antimicrobial peptoids and peptides, and were used for the purpose of making a comparison with novel peptoids in terms of antimicrobial activity.
Specifically, B. subtilis or E. coli DHS a was inoculated into LB liquid medium, and cultured at a temperature of 37° C. for 18 hours. Thereafter, the bacteria were diluted with LB medium so that each bacterial number was 2×10^5 colony-forming units (CFU) per 1 mL, and dispensed into 96-well microtiter plates at 100 μL each. The peptoid, which is 2-fold serially diluted using sterile water, was added to each well at 100 μL each. The plates were incubated at a temperature of 37° C. for 18 hours.
Thereafter, absorbance was measured at a wavelength of 600 nm using a microplate reader (Bio-Rad). The lowest peptoid concentration that completely suppresses growth of microorganisms was measured by a minimum inhibitory concentration (MIC), and the measurement results are shown in Table 12 below. Each of the minimum inhibitory concentration values was calculated as an average value of numerical values obtained through three independent experiments.

red blood cells = experiment: Hemolytic activity on red blood cells; assay type: cell-based, mouse
Method: In order to identify, through red blood cell hemolytic activity in mice, whether the peptoids synthesized in Preparation Example 1 are cytotoxic, red blood cells isolated from 10 mL of mouse blood were washed three times with phosphate-buffered saline (PBS, mixed solution of 35 mM phosphate buffer/150 mM NaCl, pH 7.4), and then centrifuged at a centrifugal force of 1,000 ×g for 10 minutes. A 10% (v/v) red blood cell solution diluted with PBS was dispensed into a 96-well microtiter plate at 150 μL each, and then a peptide solution was added at 50 μL each. Thereafter, the 96-well microtiter plate was incubated at a temperature of 37° C. for 1 hour.
The incubated 96-well microtiter plate was centrifuged at a centrifugal force of 1,000×g for 5 minutes. Thereafter, supernatant was taken at 100 μL each and transferred to a new 96-well microtiter plate. Then, absorbance at a wavelength of 540 nm was measured (Table 6).
In this case, a value obtained in a case of being treated with 0.1% (v/v) Triton X-100 was set as 100% hemolysis, and hemolytic activity (degree of cell destruction) of the peptoids was calculated using the following Equation 1. In the Equation 1, A is absorbance of the peptoid solution at a wavelength of 540 nm, B is absorbance of 0.1% Triton X-100 at a wavelength of 540 nm, and C is absorbance of the PBS solution at a wavelength of 540 nm. In this case, Peptoid NO. […] Degree of cell destruction (% hemolysis)=(A−C)/(B−C)[…] [Equation 1]
In Table 6, HD10 means a peptoid concentration which causes 10% hemolysis of red blood cells, and HD50 means a peptoid concentration which causes 50% hemolysis of red blood cells. In addition, Hmax is a hemolysis rate (%) at 200 μM which is the highest peptoid concentration used in the experiment.
Hemolytic activity of Peptoid NOS. 1, 18 to 23, and the peptide Pexiganan was measured in the same manner as in Experimental Example 2.

Row | SMILES | CC50 at 24 h (in vitro; concentration indicating 50% survival, 24 h, MTS, read-out: LC50) [µM] | MIC B. subtilis (B. subtilis) [µM] | HD10 (red blood cells) | CC50 at 24 h (in vitro; human) [µM] | HD50 (red blood cells)
1 | C[C@@H](c1ccccc1)N(CC(=O)N(CCCCN)CC(=O)N(CC(=O)N(CC(=O)N(CCCCN)CC(=O)N(CC(=O)N(CC(=O)N(CCCCN)CC(=O)N(CC(=O)N(CC(=O)N(CCCCN)CC(N)=O)[C@@H](C)c1ccccc1)[C@@H](C)c1ccccc1)[C@@H](C)c1ccccc1)[C@@H](C)c1ccccc1)[C@@H](C)c1ccccc1)[C@@H](C)c1ccccc1)C(=O)CN(C(=O)CNCCCCN)[C@@H](C)c1ccccc1 [compound 22] (H-[Nlys][Nspe][Nspe][Nlys][Nspe][Nspe][Nlys][Nspe][Nspe][Nlys][Nspe][Nspe][Nlys]-NH2) | 10 | 0.4 (≈ 0.779 µg/mL) | 19.5 |  | 
2 | C[C@@H](c1ccc(F)cc1)N(CC(N)=O)C(=O)CN(C(=O)CN(CCCCN)C(=O)CN(C(=O)CN(C(=O)CN(CCCCN)C(=O)CN(C(=O)CN(C(=O)CN(CCCCN)C(=O)CN(C(=O)CN(C(=O)CNCCCCN)[C@@H](C)c1ccc(F)cc1)[C@@H](C)c1ccc(F)cc1)[C@@H](C)c1ccc(F)cc1)[C@@H](C)c1ccc(F)cc1)[C@@H](C)c1ccc(F)cc1)[C@@H](C)c1ccc(F)cc1)[C@@H](C)c1ccc(F)cc1 [compound 21] |  | 0.4 (≈ 0.785 µg/mL) | <6.25/<6.25 | 9.5 | <6.25/<6.25
